The text below walks through data of a melting point compilation (Tetko et al.; mined from patent text by program, amines drawn as free bases though some values may be those of a salt).

Structures are written as SMILES.

`CC(=O)CCc1ccc2ccccc2c1` yielded a melting point of 56 to 58 °C.

In turn, `COc1ccccc1N1CCc2c1c1cccc(OC)c1[nH]c2=O` yielded a melting point of 185 to 188 °C.

Molecule `COc1nccnc1NS(=O)(=O)c1scc(Cl)c1Cl` registered a melting point of 152 °C.

For `CNC(=O)c1cc(-c2ccc(OC)cc2)nn(CC(=O)NCCO)c1=O`, the melting point is 240 to 241 °C.

In turn, `COC(=O)C1=C(N(c2ccccc2)c2ccccc2)CC(C(=O)OC)=C(N(c2ccccc2)c2ccccc2)C1` returned a melting point of 236 to 238 °C.

In the case of `CCCN(CCC)c1c([N+](=O)[O-])cc(C#N)c(C)c1[N+](=O)[O-]`, the melting point fell in the range of 97 to 99 °C.

Regarding `Cc1ccccc1S(=O)(=O)NC(=O)n1sc(Cl)cc1=O`, the melting point was in the range of 82 to 84 °C.

As for `COC(=O)CNC(=O)c1cc2cc(Cl)ccc2[nH]1`, the melting point fell in the range of 252 to 254 °C.

With `O=C1N(O)CCC12CCOc1ccc(F)cc12` (stereo unspecified), the melting point fell in the range of 208 to 209 °C.

For the molecule `O=C(Nc1ccc(CC2CCN(S(=O)(=O)c3ccccc3)CC2)cc1)C(F)(F)F`, the melting point lay within 194 to 195 °C.

`Oc1ccc(CN2CCOCC2)c2cccnc12` registered a melting point of 130 °C.

Molecule `O=C1CCC(N2Cc3c(OCc4ccc(CN5CCN(c6ccccn6)CC5)cc4)cccc3C2=O)C(=O)N1` (stereo unspecified) yielded a melting point of 165 to 167 °C.

As for `FC(F)(F)c1n[nH]c(Cl)c1Cl`, the melting point is 58 to 60 °C.

The molecule `COc1ccnc(CCc2nc3cc(-c4ccc(O)cc4)cnc3[nH]2)c1` gave a melting point of 206 to 208 °C.

Consider `N#CC(C#N)=C1N(CCCN2CCCC2)CCN1CCN1CCCC1`, for which the melting point fell in the range of 70 to 71 °C.

Turning to `CC(=O)c1ccc(OCCc2nc(-c3ccccc3)oc2C)cc1`, the melting point was 70 to 71 °C.

For the molecule `Cc1ccc2nc(-c3ccc(-c4ccccc4)cc3)c(O)c(C(=O)O)c2c1`, the melting point was in the range of 236 to 238 °C.

Take `N=C1CC(=O)Oc2cc(OCC(O)COc3ccccc3)ccc21` (stereo unspecified): the melting point lay within 213 to 214 °C.

Regarding `COc1ccc(C2CC(=O)N(c3ccncc3)C2=O)cc1` (stereo unspecified), the melting point fell in the range of 179 to 180 °C.

Turning to `O=C(Nc1ccc(-c2ccccc2)cc1C(=O)O)OCc1ccc(-c2ccccc2)cc1`, the melting point was 234 to 236 °C.

For `CCOC(=O)C(C)c1ccc2oc(C(=O)c3ccc(Cl)cc3)nc2c1` (stereo unspecified), the melting point lay in the range of 66 to 67 °C.

Take `O=C1CC(NC(=O)c2c[nH]c3ccccc23)CCCN1` (stereo unspecified): the melting point is 243 to 244 °C.

With `N#CC1=CCC(c2ccccc2)c2ccccc21` (stereo unspecified), the melting point lay in the range of 66 to 67 °C.

`CC(NO)c1ccc2c(c1)Sc1ccccc1O2` (stereo unspecified) came in with a melting point of 64 to 67 °C.

Turning to `NCCc1c(Br)[nH]c2ccc3c(=O)[nH]ccc3c12`, the melting point turned out to be 252 °C.

`N#Cc1ccc(C=Cc2ccc(-c3ccccc3)cc2)cc1` had a melting point of 235 to 254 °C.

In turn, `CCCCCCC/C=C/C(=O)NCC(C)C` displayed a melting point of 42 to 45 °C.

`NC(=O)C1CCN(Cc2cnc3cc(NC(=O)c4ccc(-c5ccc(F)cc5)cc4)ccc3c2)CC1`: the melting point lay in the range of 261 to 265 °C.

Regarding `COc1nc(C)nc(NC(=O)NS(=O)(=O)c2cc([N+](=O)[O-])cs2)n1`, the melting point worked out at 188 °C.

In the case of `CN(C)/C=c1\c2ccccc2c2[nH]c(=O)c3nccn3c12`, the melting point was 293 °C.

Turning to `CC(C)(C)OC(=O)N1CC(O)CN1C(=O)OC(C)(C)C`, the melting point is 100 to 102 °C.

`CCOC(=O)C(C#N)=C(NCc1ccccc1)NCC1CN(Cc2ccc(F)cc2)CCO1` (stereo unspecified): the melting point lay in the range of 107 to 108 °C.

Molecule `COCCC1(C(=O)N[C@@H](Cc2ccc(-c3c(C(F)(F)F)cc(C)n(C)c3=O)cc2)C(=O)O)CCCC1` showed a melting point of 181 to 183 °C.

Molecule `COc1cc(C(=O)NS(=O)(=O)c2ccccc2C)ccc1Cc1cccc2ccc(CCCC(=O)N3CCOCC3)cc12` yielded a melting point of 100 to 102 °C.

Take `NC(=O)NCc1ccc2ccn(C3CCN(CCc4ccc(F)cc4)CC3)c2c1`: the melting point lay in the range of 172 to 173 °C.

In the case of `C=Cn1ccnc1C=O`, the melting point fell in the range of 48 to 51 °C.

Turning to `CSc1ccc(C=C(C(=O)O)c2ccc(F)cc2)cc1`, the melting point was in the range of 136 to 138 °C.

As to `Cn1ncc(C(=O)N2CCOCC2)c1C(=O)Nc1ccc2nc(-c3ccccc3)nn2c1`, the melting point was in the range of 183 to 185 °C.

The molecule `COc1nc(C)nc(NC(=O)NS(=O)(=O)c2ccccc2C(=O)OC(C)C)n1` displayed a melting point of 193 to 196 °C.

For the molecule `CC(=O)OCc1cccc2c1nc(-c1c(F)cccc1F)n2Cc1c(F)cccc1F`, the melting point was in the range of 126 to 127 °C.

The molecule `COc1ccc(NC(=O)N(Cc2ccccn2)Cc2ccc(F)cc2F)c(NC(=O)c2cc(C(C)(C)C)c(O)c(C(C)(C)C)c2)c1` returned a melting point of 176 to 178 °C.

Consider `Cc1cccc2c(Cl)cc(C(F)(F)Cl)nc12`, for which the melting point lay in the range of 46 to 48 °C.

In turn, `CCOC(=O)CCc1cc(-c2ccccc2)nn1Cc1ccc(Cl)cc1Cl` gave a melting point of 91 to 93 °C.

The molecule `NS(=O)(=O)c1nnc(NC(=O)c2ccccc2)s1` gave a melting point of 250 °C.

As for `CCOC(=O)C1=C(C)NC(N)=C(C(=O)OCC)C1c1ccccc1OC` (stereo unspecified), the melting point was 170 °C.

For the molecule `C=CCNc1ccc(C(=O)O)cc1[N+](=O)[O-]`, the melting point is 195 to 200 °C.

Molecule `CCOC(=O)c1c(Nc2ccccc2OC)n[nH]c1C` returned a melting point of 162 to 172 °C.

The molecule `O=C(O)c1cccnc1C1=NC(=O)C2(CCCCC2)N1` came in with a melting point of 186 to 189 °C.

For the molecule `CSC1(SC)C(=O)CC2C3CCC4=CC(=O)C=CC4(C)C3(F)C(OC(C)=O)CC21C` (stereo unspecified), the melting point is 225 to 227 °C.

Molecule `COc1ccc(-c2cncc(OC3SCC(OC(C)=O)C(OC(C)=O)C3OC(C)=O)c2)cn1` (stereo unspecified) came in with a melting point of 172 °C.

Turning to `CN(C)Cc1nc(-c2ccccc2)cn1Cc1ccccc1`, the melting point is 78 to 80 °C.

On to `COc1ccc2c(c1)c1c3c(c(-c4ccccc4Cl)cc1n2CCC(=O)NS(=O)(=O)CCN(C)C)C(=O)NC3=O`, for which the melting point was in the range of 208 to 213 °C.

`COc1cc2cc(OCCCN3CCCCC3)ccc2c2ccc(OCCCN3CCCCC3)cc12`: the melting point is 118 to 120 °C.

Molecule `CSc1ccc(CNC(=O)c2sc(NC(C)=O)nc2CCc2ccc(NC(=O)OC(C)(C)C)cc2)cc1` yielded a melting point of 182 to 183 °C.

`CC[C@@H](c1ccccc1)N(Cc1ccc(C(=O)OC)cc1)S(=O)(=O)c1ccc(F)cc1` returned a melting point of 107 to 109 °C.

For `COc1cc2c(Cl)nc3c4ccccc4nc(Cl)c3c2cc1OC`, the melting point is 245 to 246 °C.

`CC(=O)OCCCNc1nnc(NCCCOC(C)=O)c2c1C(=O)c1ccccc1C2=O` came in with a melting point of 142 to 145 °C.

Molecule `O=C(O)c1cccc(F)c1Nc1ccccc1F` showed a melting point of 176 °C.

As for `CN(C(=O)c1cnn(C)c1C(=O)Nc1ccn2nc(N3CCOCC3)nc2c1)C1CCCC1`, the melting point was in the range of 222 to 224 °C.

In turn, `CS(=O)(=O)c1ccc(-n2ncc(C#N)c2-c2ccc(-c3ccco3)cc2)cc1` showed a melting point of 229 to 230 °C.

For `Cc1csc2nc(S(=O)(=O)Nc3cccc4sccc34)nn12`, the melting point was 205 to 209 °C.

As to `O=c1[nH]c(-c2ccccc2)c(-c2ccccc2)o1`, the melting point fell in the range of 158 to 159 °C.

`CC12CCC(=O)C([N+](=O)[O-])=C1CCC1C2CCC2(C)C(OC3CC3)CCC12` (stereo unspecified) had a melting point of 133 to 134 °C.

`COc1ccc(CC(=O)NOCc2ccccc2)cc1`: the melting point lay within 98 to 99 °C.

For the molecule `CC(=O)N(C)C[C@H]1CN(c2ccc(N3CCC(=CC#N)CC3)c(F)c2)C(=O)O1`, the melting point lay within 128 to 132 °C.

Consider `CCc1cn(C2OC(CNC(=O)C(C)Oc3cc(OC)c(Cl)cc3Cl)C(O)C2F)c(=O)[nH]c1=O` (stereo unspecified), for which the melting point lay in the range of 151 to 156 °C.

For the molecule `COc1ccc(C=Cc2ccc(CBr)c(Cl)c2)c(Cl)c1`, the melting point was in the range of 106 to 108 °C.

In the case of `CCOc1cc(Cl)ccc1C=NNC(=N)NN=Cc1ccc(Cl)cc1OCC`, the melting point fell in the range of 180 to 182 °C.

Turning to `N#CC(C(=O)Nc1ccccc1)C(=O)c1nn(-c2ccccc2)c2c1COc1ccccc1-2` (stereo unspecified), the melting point is 280 to 282 °C.

`CCCc1c(C(=O)CC(C)OC)c2ccc(C(N)=O)cc2n1Cc1ccccc1Cl` (stereo unspecified) returned a melting point of 155 to 157 °C.

`O=C(NCCC(=O)N1CCCCC1)c1ccc(-c2ccc3nnn(Cc4ccc5ncccc5c4)c3n2)cc1F` showed a melting point of 109 to 111 °C.

In turn, `NC(=Nc1ccc(CCCC(=O)Oc2cccc(Nc3ccccc3)c2)cc1)c1cccs1` displayed a melting point of 110 to 112 °C.

`CC(CCCN(C)C)C1CC(=O)C2=C3CCC4CC(O)CCC4(C)C3CCC21C` (stereo unspecified) gave a melting point of 160 to 162 °C.

`Cc1ccc2c(c1)C=Cc1cc(C)ccc1C2c1cn(Cc2ccc(C(=O)N[C@@H](CC(=O)O)C(=O)O)o2)c(=O)[nH]c1=S`: the melting point worked out at 195 °C.

`Cc1cn2c(n1)CN=C(c1ccccc1Cl)c1cc(Cl)ccc1-2` yielded a melting point of 170 °C.

Turning to `CCOC(=O)C(C)(C)Oc1ccc(-c2ccc(CCNC(=O)c3ccccc3C)cc2)cc1`, the melting point is under 20 °C.

`O=C1CCC(c2ccc(OCC3CO3)c(Cl)c2)=NN1` (stereo unspecified) had a melting point of 148 to 149 °C.

Consider `Cn1cc(C(N)=O)c(=O)c2sc(Cl)cc21`, for which the melting point was in the range of 325 to 327 °C.

In the case of `CS(=O)(=O)Nc1ccc(CCCOCCCCCCNCC(O)c2cc(Cl)c(N)c(Cl)c2)cc1` (stereo unspecified), the melting point lay within 62 to 64 °C.

`CC(C)(COc1ncc(C(F)(F)F)cc1Cl)C(=O)C(Oc1ccc(F)cc1)n1cncn1` (stereo unspecified) registered a melting point of 104 to 106 °C.

Turning to `CC(C)(CO)Oc1ccc(-c2ccc(N3CCCCC3)cc2)cc1`, the melting point fell in the range of 158 to 160 °C.

For `Cc1ccc(O)c(C(CCCC(c2cc(C)ccc2O)c2cc(C)ccc2O)c2cc(C)ccc2O)c1`, the melting point lay in the range of 220 to 228 °C.

Consider `Nc1cc(SC(F)(F)F)cc(Br)c1N`, for which the melting point fell in the range of 60 to 61 °C.

On to `CC(C)C(=O)O[C@@H]1C[C@H](C(=O)Nc2ccc(N3CCOCC3=O)cc2)N(C(=O)Nc2ccc(Cl)cc2)C1`, for which the melting point was 129 °C.

With `CCCOc1nc2ccsc2c(=O)n1CCC`, the melting point was in the range of 42 to 45 °C.

Molecule `O=S1(=O)c2cccc3cccc(c23)N1CCCN1CCN(c2cccc(F)c2)CC1` yielded a melting point of 103 °C.

The term melting point denotes the temperature of the solid-liquid transition.
